Molecular target: T1, CFTR (Homo sapiens, UniProt P13569, DEL508-508)
T1 construct: endogenous in cells; host or cells: primary human bronchial epithelial cells from CF subjects (F508del/MF-HBE), differentiated at air-liquid interface
Assay: HBE assay: Ussing chamber assay of CFTR-mediated short-circuit currents
Assay type: cell-based
Conditions: HBE assay; for EC50: read-out: HBE EC50; for Emax: read-out: HBE Max activity (%); for activation at 10 µM: read-out: HBE Activity at 10 μM (%)
Procedure, shortened: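 CFTR-mediated Isc (μA/cm²) equals the peak response to apical 20 μM forskolin minus the residual after a 20 μM each BPO/GlyH-101/CFTR inhibitor 172 cocktail, recorded in Ussing chambers at Vhold 0 mV, 37 °C, pH 7.4, with 30 μM apical amiloride. Cells were F508del/MF HBE cultures preincubated 18-24 h with corrector (concentration range or 10 μM) plus 1 μM ivacaftor in 20% human serum.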

T1 sequence (P13569 with tags, fused parts or gaps DEL508-508): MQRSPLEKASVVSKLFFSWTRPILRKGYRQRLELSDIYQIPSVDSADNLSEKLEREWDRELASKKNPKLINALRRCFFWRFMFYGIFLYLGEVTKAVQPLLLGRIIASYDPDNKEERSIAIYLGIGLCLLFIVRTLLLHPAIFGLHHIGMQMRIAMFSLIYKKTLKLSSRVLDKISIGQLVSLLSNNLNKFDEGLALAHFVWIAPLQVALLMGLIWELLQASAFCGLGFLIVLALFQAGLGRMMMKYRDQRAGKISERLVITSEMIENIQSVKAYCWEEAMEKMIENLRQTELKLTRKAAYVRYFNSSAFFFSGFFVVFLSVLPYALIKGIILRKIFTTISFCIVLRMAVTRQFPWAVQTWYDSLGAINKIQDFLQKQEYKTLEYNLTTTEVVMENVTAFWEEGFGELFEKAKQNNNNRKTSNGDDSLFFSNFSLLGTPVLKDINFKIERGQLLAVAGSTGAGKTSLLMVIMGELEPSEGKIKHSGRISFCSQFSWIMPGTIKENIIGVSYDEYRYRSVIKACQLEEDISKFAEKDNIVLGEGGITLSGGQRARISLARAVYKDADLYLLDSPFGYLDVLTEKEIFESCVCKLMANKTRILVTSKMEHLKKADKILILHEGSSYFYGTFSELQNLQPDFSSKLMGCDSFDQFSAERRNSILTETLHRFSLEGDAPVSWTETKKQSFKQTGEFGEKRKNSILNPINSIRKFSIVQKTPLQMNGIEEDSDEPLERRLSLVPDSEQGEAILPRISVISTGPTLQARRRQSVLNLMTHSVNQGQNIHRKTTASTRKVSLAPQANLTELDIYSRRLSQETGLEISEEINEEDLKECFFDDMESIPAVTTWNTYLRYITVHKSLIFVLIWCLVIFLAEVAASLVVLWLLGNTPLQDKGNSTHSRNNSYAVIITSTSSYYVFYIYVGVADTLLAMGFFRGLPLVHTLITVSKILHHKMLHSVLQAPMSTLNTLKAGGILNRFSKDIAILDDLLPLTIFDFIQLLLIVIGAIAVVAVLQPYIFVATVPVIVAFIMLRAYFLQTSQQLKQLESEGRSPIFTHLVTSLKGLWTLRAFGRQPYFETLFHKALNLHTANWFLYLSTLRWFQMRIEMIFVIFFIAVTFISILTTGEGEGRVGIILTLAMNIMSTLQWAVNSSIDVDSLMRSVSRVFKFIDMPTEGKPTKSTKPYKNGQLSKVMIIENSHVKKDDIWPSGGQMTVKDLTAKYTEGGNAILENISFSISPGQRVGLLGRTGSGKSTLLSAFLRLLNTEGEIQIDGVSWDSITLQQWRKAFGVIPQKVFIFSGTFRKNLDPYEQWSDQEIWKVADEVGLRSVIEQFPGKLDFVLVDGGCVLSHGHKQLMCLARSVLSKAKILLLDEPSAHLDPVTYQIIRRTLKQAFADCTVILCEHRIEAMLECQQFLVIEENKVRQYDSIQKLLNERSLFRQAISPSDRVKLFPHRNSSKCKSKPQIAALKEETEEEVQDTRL

Cc1cccc(C)c1-c1cc2nc(n1)NS(=O)(=O)c1cccc(c1)C(=O)N(Cc1cncc(N(C)C3CCCC3)n1)[C@H](CC(C)(C)C)CO2 [Compound 1387]
EC50: < 1000 nM | Emax: > 60%

Cc1cccc(C)c1-c1cc2nc(n1)NS(=O)(=O)c1cccc(c1)C(=O)N(Cc1ncc(OCC3CC3)cn1)[C@H](CC(C)(C)C)CO2 [Compound 1390]
EC50: < 1000 nM | Emax: > 60%

CC[C@@H](C)Oc1cnc(CN2C(=O)c3cccc(c3)S(=O)(=O)Nc3nc(cc(-c4c(C)cccc4C)n3)OC[C@H]2CC(C)C)nc1 [Compound 1391]
EC50: < 1000 nM | Emax: > 60%

COCCN(c1cccc(CN2C(=O)c3cccc(c3)S(=O)(=O)Nc3nc(cc(-c4c(C)cccc4C)n3)OC[C@H]2CC(C)(C)C)n1)C1CC2(CC2)C1 [Compound 1393]
EC50: < 1000 nM | Emax: > 60%

COCCN(c1cncc(CN2C(=O)c3cccc(c3)S(=O)(=O)Nc3nc(cc(-c4c(C)cccc4C)n3)OC[C@H]2CC(C)(C)C)n1)C1CC2(CC2)C1 [Compound 1394]
EC50: < 1000 nM | Emax: > 60%

Cc1cccc(C)c1-c1cc2nc(n1)NS(=O)(=O)c1cccc(c1)C(=O)N(Cc1ncc(OCC(C)C)cn1)[C@H](CC(C)(C)C)CO2 [Compound 1396]
EC50: < 1000 nM | Emax: > 60%

Cc1cccc(C)c1-c1cc2nc(n1)NS(=O)(=O)c1cccc(c1)C(=O)N(Cc1ncc(OC3CC(F)(F)C3)cn1)[C@H](CC(C)(C)C)CO2 [Compound 1397]
EC50: < 1000 nM | Emax: > 60%

Cc1cccc(C)c1-c1cc2nc(n1)NS(=O)(=O)c1cccc(c1)C(=O)N(Cc1cccc(N3C4CCC3CC4)n1)[C@H](CC(C)(C)C)CO2 [Compound 1398]
EC50: < 1000 nM | Emax: > 60%

COC[C@H]1COCCN1c1cccc(CN2C(=O)c3cccc(c3)S(=O)(=O)Nc3nc(cc(-c4c(C)cccc4C)n3)OC[C@H]2CC(C)(C)C)n1 [Compound 1399]
activation at 10 µM: > 60%

Cc1cccc(C)c1-c1cc2nc(n1)NS(=O)(=O)c1cccc(c1)C(=O)N(Cc1ncc(N3CC(C)C3)cn1)[C@H](CC(C)(C)C)CO2 [Compound 1403]
EC50: < 1000 nM | Emax: > 60%

Cc1cccc(C)c1-c1cc2nc(n1)NS(=O)(=O)c1cccc(c1)C(=O)N(Cc1ncc(N3CC(OC(C)C)C3)cn1)[C@H](CC(C)(C)C)CO2 [Compound 1404]
EC50: < 1000 nM | Emax: > 60%

Cc1cccc(C)c1-c1cc2nc(n1)NS(=O)(=O)c1cccc(c1)C(=O)N(Cc1ncc(N3CC[C@H]3C)cn1)[C@H](CC(C)(C)C)CO2 [Compound 1405]
EC50: < 1000 nM | Emax: > 60%

COCCN(c1cncc(CN2C(=O)c3cccc(c3)S(=O)(=O)Nc3nc(cc(-c4c(C)cccc4C)n3)OC[C@H]2CC(C)(C)C)n1)C(C)C [Compound 1407]
EC50: < 1000 nM | Emax: > 60%

Cc1cccc(C)c1-c1cc2nc(n1)NS(=O)(=O)c1cccc(c1)C(=O)N(Cc1ncc(OC3CCCC3)cn1)[C@H](CC(C)C)CO2 [Compound 1408]
EC50: 1000 to 3000 nM | Emax: > 60%

Cc1cccc(C)c1-c1cc2nc(n1)NS(=O)(=O)c1cccc(c1)C(=O)N(Cc1ccc(OC(F)(F)F)cn1)[C@H](CC(C)(C)C)CO2 [Compound 1412]
EC50: < 1000 nM | Emax: > 60%

Cc1cccc(C)c1-c1cc2nc(n1)NS(=O)(=O)c1cccc(c1)C(=O)N(Cc1cccc(N3CCOCC(C)(C)C3)n1)[C@H](CC(C)(C)C)CO2 [Compound 1414]
EC50: < 1000 nM | Emax: > 60%

Cc1cccc(C)c1-c1cc2nc(n1)NS(=O)(=O)c1cccc(c1)C(=O)N(Cc1ncc(OCC(F)F)cn1)[C@H](CC(C)(C)C)CO2 [Compound 1416]
EC50: < 1000 nM | Emax: > 60%

COCCN(c1cncc(CN2C(=O)c3cccc(c3)S(=O)(=O)Nc3nc(cc(-c4c(C)cccc4C)n3)OC[C@H]2CC(C)(C)C)n1)C1CCC1 [Compound 1417]
EC50: < 1000 nM | Emax: > 60%

COCCN(CC(C)C)c1cncc(CN2C(=O)c3cccc(c3)S(=O)(=O)Nc3nc(cc(-c4c(C)cccc4C)n3)OC[C@H]2CC(C)(C)C)n1 [Compound 1418]
EC50: < 1000 nM | Emax: > 60%

Cc1cccc(C)c1-c1cc2nc(n1)NS(=O)(=O)c1cccc(c1)C(=O)N(Cc1cccc(NC3CCOCC3)n1)[C@H](CC(C)(C)C)CO2 [Compound 1419]
EC50: < 1000 nM | Emax: > 60%

Cc1cccc(C)c1-c1cc2nc(n1)NS(=O)(=O)c1cccc(c1)C(=O)N(Cc1cncc(NC3CCOCC3)n1)[C@H](CC(C)(C)C)CO2 [Compound 1420]
EC50: < 1000 nM | Emax: > 60%

Cc1cccc(C)c1-c1cc2nc(n1)NS(=O)(=O)c1cccc(c1)C(=O)N(Cc1cccc(N(C)CC(C)(C)C3CC3)n1)[C@H](CC(C)(C)C)CO2 [Compound 1421]
activation at 10 µM: > 60%

Cc1cccc(C)c1-c1cc2nc(n1)NS(=O)(=O)c1cccc(c1)C(=O)N(Cc1ncc(OC3CC(C)(C)C3)cn1)[C@H](CC(C)(C)C)CO2 [Compound 1422]
EC50: < 1000 nM | Emax: > 60%

Cc1cccc(C)c1-c1cc2nc(n1)NS(=O)(=O)c1cccc(c1)C(=O)N(Cc1ncc(OC3CC(C)(C)C3)cn1)[C@H](CC(C)C)CO2 [Compound 1423]
EC50: 1000 to 3000 nM | Emax: > 60%

Cc1cccc(C)c1-c1cc2nc(n1)NS(=O)(=O)c1cccc(c1)C(=O)N(Cc1ncc(OC(F)(F)F)cn1)[C@H](CC(C)(C)C)CO2 [Compound 1425]
EC50: < 1000 nM | Emax: > 60%

Cc1cccc(C)c1-c1cc2nc(n1)NS(=O)(=O)c1cccc(c1)C(=O)N(Cc1ncc(OC3CCC3)cn1)[C@H](CC1CCC1)CO2 [Compound 1426]
EC50: < 1000 nM | Emax: > 60%

Cc1cccc(C)c1-c1cc2nc(n1)NS(=O)(=O)c1cccc(c1)C(=O)N(Cc1cccc(N(C)C(C)C(C)(C)C)n1)[C@H](CC(C)(C)C)CO2 (some centres unmarked) [Compound 1427]
activation at 10 µM: > 60%

Cc1cccc(C)c1-c1cc2nc(n1)NS(=O)(=O)c1cccc(c1)C(=O)N(Cc1cccc(N3CCC[C@@H]3CC(C)C)n1)[C@H](CC(C)(C)C)CO2 [Compound 1428]
EC50: < 1000 nM | Emax: > 60%

Cc1cccc(C)c1-c1cc2nc(n1)NS(=O)(=O)c1cccc(c1)C(=O)N(Cc1ncc(OC(F)F)cn1)[C@H](CC(C)(C)C)CO2 [Compound 1430]
EC50: < 1000 nM | Emax: > 60%

Cc1cccc(C)c1-c1cc2nc(n1)NS(=O)(=O)c1cccc(c1)C(=O)N(Cc1ncc(OCC(F)(F)F)cn1)[C@H](CC(C)(C)C)CO2 [Compound 1431]
EC50: < 1000 nM | Emax: > 60%

CO[C@H]1C[C@@H](Oc2cnc(CN3C(=O)c4cccc(c4)S(=O)(=O)Nc4nc(cc(-c5c(C)cccc5C)n4)OC[C@H]3CC(C)C)nc2)C1 [Compound 1432]
EC50: < 1000 nM | Emax: > 60%

Cc1cccc(C)c1-c1cc2nc(n1)NS(=O)(=O)c1cccc(c1)C(=O)N(Cc1ncc(OC3CCCOC3)cn1)[C@H](CC(C)C)CO2 (some centres unmarked) [Compound 1433]
activation at 10 µM: > 60%

Cc1cccc(C)c1-c1cc2nc(n1)NS(=O)(=O)c1cccc(c1)C(=O)N(Cc1ncc(O[C@H](C)C(C)C)cn1)[C@H](CC(C)C)CO2 [Compound 1434]
EC50: 1000 to 3000 nM | Emax: > 60%

COC[C@@H]1COCCN1c1cccc(CN2C(=O)c3cccc(c3)S(=O)(=O)Nc3nc(cc(-c4c(C)cccc4C)n3)OC[C@H]2CC(C)(C)C)n1 [Compound 1435]
activation at 10 µM: > 60%

Cc1cc(C2COCCO2)cnc1CN1C(=O)c2cccc(c2)S(=O)(=O)Nc2nc(cc(-c3c(C)cccc3C)n2)OC[C@H]1CC(C)(C)C (some centres unmarked) [Compound 1436]
activation at 10 µM: > 60% | EC50: < 1000 nM | Emax: > 60%

COCCN(c1cncc(CN2C(=O)c3cccc(c3)S(=O)(=O)Nc3nc(cc(-c4c(C)cccc4C)n3)OC[C@H]2CC(C)(C)C)n1)C1CCCC1 [Compound 1437]
EC50: < 1000 nM | Emax: > 60%

CCO[C@H]1CCN(c2cnc(CN3C(=O)c4cccc(c4)S(=O)(=O)Nc4nc(cc(-c5c(C)cccc5C)n4)OC[C@H]3CC(C)(C)C)nc2)C1 [Compound 1438]
EC50: < 1000 nM | Emax: > 60%

COC[C@H]1CCN(c2cnc(CN3C(=O)c4cccc(c4)S(=O)(=O)Nc4nc(cc(-c5c(C)cccc5C)n4)OC[C@H]3CC(C)(C)C)nc2)C1 [Compound 1439]
EC50: < 1000 nM | Emax: > 60%

Cc1cccc(C)c1-c1cc2nc(n1)NS(=O)(=O)c1cccc(c1)C(=O)N(Cc1ncc(N3CC[C@](C)(F)C3)cn1)[C@H](CC(C)(C)C)CO2 [Compound 1440]
EC50: < 1000 nM | Emax: > 60%

Cc1cccc(C)c1-c1cc2nc(n1)NS(=O)(=O)c1cccc(c1)C(=O)N(Cc1ncc(N3CC[C@@](C)(F)C3)cn1)[C@H](CC(C)(C)C)CO2 [Compound 1441]
EC50: < 1000 nM | Emax: > 60%

Cc1cccc(C)c1-c1cc2nc(n1)NS(=O)(=O)c1cccc(c1)C(=O)N(Cc1ncc(N3CCC(C)(F)CC3)cn1)[C@H](CC(C)(C)C)CO2 [Compound 1442]
activation at 10 µM: > 60%

Cc1cccc(C)c1-c1cc2nc(n1)NS(=O)(=O)c1cccc(c1)C(=O)N(Cc1ncc(N3CCC(F)(F)CC3)cn1)[C@H](CC(C)(C)C)CO2 [Compound 1443]
activation at 10 µM: > 60%

Cc1cccc(C)c1-c1cc2nc(n1)NS(=O)(=O)c1cccc(c1)C(=O)N(Cc1ncc(N3CC(F)(F)C3)cn1)[C@H](CC(C)(C)C)CO2 [Compound 1444]
EC50: < 1000 nM | Emax: > 60%

Cc1cccc(C)c1-c1cc2nc(n1)NS(=O)(=O)c1cccc(c1)C(=O)N(Cc1cccc(N(CC3CCCO3)C(C)C)n1)[C@H](CC(C)(C)C)CO2 (some centres unmarked) [Compound 1445]
EC50: 1000 to 3000 nM | Emax: > 60%

Cc1cccc(C)c1-c1cc2nc(n1)NS(=O)(=O)c1cccc(c1)C(=O)N(Cc1cccc(N(CC3CCCO3)C(C)C)n1)[C@H](CC(C)(C)C)CO2 (some centres unmarked) [Compound 1446]
HBE Max activity (%): +++ (+++ is >60+) | EC50: < 1000 nM

CC[C@@H](C)Oc1cnc(CN2C(=O)c3cccc(c3)S(=O)(=O)Nc3nc(cc(-c4c(C)cccc4C)n3)OC[C@H]2CC2CC2)nc1 [Compound 1447]
EC50: < 1000 nM | Emax: > 60%

Reference: patent US20240150377A1, “MODULATORS OF CYSTIC FIBROSIS TRANSMEMBRANE CONDUCTANCE REGULATOR” (VERTEX PHARMACEUTICALS INCORPORATED, priority 2020, published 2024)
